Test system: patients with treatment-resistant major depressive disorder (TRD)
Test: Phase 1/2 clinical trial of inhaled 5-MeO-DMT in TRD (MADRS, BPRS, safety)
Details: for patients experiencing at least one ADR: n=4, all ADRs mild and resolved spontaneously
Protocol: Patients were assigned to different groups. In the context of the present invention, the group who received a single, 12 mg dose and the group who underwent an intra-day individualized dosing regimen (IDR) that allowed for multiple, escalating doses (6 mg, 12 mg and 18 mg) within a single day, driven by the intensity of the patient-reported psychedelic experience are of interest.
The data gathered include the assessment of the treated patients against several scales including the Montgomery-Åsberg Depression Rating Scale (MADRS) and the Brief Psychiatric Rating Scale (BPRS).
This trial was designed in two parts. Part A was an open-label, single-arm, single-dose Phase 1 trial with two dose levels (12 mg (n=4) and 18 mg (n=4)). […] The primary endpoint of Part B was to assess the effects on the severity of depression, as assessed by the proportion of patients in remission on day seven after dosing, defined as a MADRS total score of less than or equal to 10.

[1] = TRD, IDR 6/12/18 mg inhaled, sum n=8, 2 h after last dose, baseline 26
[2] = TRD, IDR 6/12/18 mg inhaled, sum n=8, 2 h after last dose, baseline 28
[3] = TRD, IDR 6/12/18 mg inhaled, sum n=8, 3 h after last dose, baseline 37
[4] = TRD, IDR 6/12/18 mg inhaled, sum n=8, day 1, baseline 25
[5] = TRD, IDR 6/12/18 mg inhaled, sum n=8, day 1, baseline 26
[6] = TRD, IDR 6/12/18 mg inhaled, sum n=8, day 1, baseline 37
[7] = TRD, IDR 6/12/18 mg inhaled, sum n=8, day 7, baseline 25
[8] = TRD, IDR 6/12/18 mg inhaled, sum n=8, day 7, baseline 26
[9] = TRD, IDR 6/12/18 mg inhaled, sum n=8, day 7, baseline 30
[10] = TRD, IDR 6/12/18 mg inhaled, sum n=8, day 7, baseline 37
[11] = TRD, single 12 mg inhaled, sum n=4, 2 h after dose, baseline 13
[12] = TRD, single 12 mg inhaled, sum n=4, 2 h after dose, baseline 16
[13] = TRD, single 12 mg inhaled, sum n=4, 3 h after dose, baseline 18
[14] = TRD, single 12 mg inhaled, sum n=4, 3 h after dose, baseline 25
[15] = TRD, single 12 mg inhaled, sum n=4, day 1, baseline 12
[16] = TRD, single 12 mg inhaled, sum n=4, day 1, baseline 13
[17] = TRD, single 12 mg inhaled, sum n=4, day 1, baseline 16
[18] = TRD, single 12 mg inhaled, sum n=4, day 1, baseline 25
[19] = TRD, single 12 mg inhaled, sum n=4, day 7, baseline 12
[20] = TRD, single 12 mg inhaled, sum n=4, day 7, baseline 13
[21] = TRD, single 12 mg inhaled, sum n=4, day 7, baseline 16
[22] = TRD, single 12 mg inhaled, sum n=4, day 7, baseline 25

COc1ccc2[nH]cc(CCN(C)C)c2c1 [5-MeO-DMT]
patients experiencing at least one ADR (Part A, single 12 mg inhaled): 3 of 4 | SAEs (Part A, single 12 mg or 18 mg inhaled): No SAEs were reported | patients experiencing at least one ADR (Part A, single 18 mg inhaled): 3 of 4 | SAEs (Part B, IDR 6/12/18 mg inhaled, n=8): No SAEs were reported | MADRS Suicidal Thoughts score (TRD, IDR 6/12/18 mg inhaled, sum n=8, 2 h after last dose, baseline 11): 3 | MADRS Inner Tension percentage improvement [1]: 58% | MADRS Inner Tension score [1]: 11 | MADRS Lassitude score (TRD, IDR 6/12/18 mg inhaled, sum n=8, 2 h after last dose, baseline 27): 10 | MADRS Pessimistic Thoughts percentage improvement [2]: 75.00% | MADRS Pessimistic Thoughts score [2]: 7 | MADRS Concentration Difficulties score (TRD, IDR 6/12/18 mg inhaled, sum n=8, 2 h after last dose, baseline 30): 11 | MADRS Inability to Feel score (TRD, IDR 6/12/18 mg inhaled, sum n=8, 2 h after last dose, baseline 36): 12 | BPRS Emotional Withdrawal score (TRD, IDR 6/12/18 mg inhaled, sum n=8, 3 h after last dose, baseline 13): 8 | BPRS Blunted Affect score (TRD, IDR 6/12/18 mg inhaled, sum n=8, 3 h after last dose, baseline 15): 11 | BPRS Tension score (TRD, IDR 6/12/18 mg inhaled, sum n=8, 3 h after last dose, baseline 16): 11 | BPRS Guilt Feelings score (TRD, IDR 6/12/18 mg inhaled, sum n=8, 3 h after last dose, baseline 34): 14 | BPRS Anxiety percentage improvement [3]: 49% | BPRS Anxiety score [3]: 19 | MADRS Suicidal Thoughts score (TRD, IDR 6/12/18 mg inhaled, sum n=8, day 1, baseline 11): 1 | BPRS Emotional Withdrawal score (TRD, IDR 6/12/18 mg inhaled, sum n=8, day 1, baseline 13): 8 | BPRS Blunted Affect score (TRD, IDR 6/12/18 mg inhaled, sum n=8, day 1, baseline 15): 8 | BPRS Tension score (TRD, IDR 6/12/18 mg inhaled, sum n=8, day 1, baseline 16): 11 | MADRS Reduced Sleep percentage improvement [4]: 52% | MADRS Reduced Sleep score [4]: 12 | MADRS Inner Tension percentage improvement [5]: 77% | MADRS Inner Tension score [5]: 6 | MADRS Lassitude score (TRD, IDR 6/12/18 mg inhaled, sum n=8, day 1, baseline 27): 5 | MADRS Pessimistic Thoughts score (TRD, IDR 6/12/18 mg inhaled, sum n=8, day 1, baseline 28): 4 | MADRS Concentration Difficulties score (TRD, IDR 6/12/18 mg inhaled, sum n=8, day 1, baseline 30): 1 | BPRS Guilt Feelings score (TRD, IDR 6/12/18 mg inhaled, sum n=8, day 1, baseline 34): 11 | MADRS Inability to Feel score (TRD, IDR 6/12/18 mg inhaled, sum n=8, day 1, baseline 36): 2 | BPRS Anxiety percentage improvement [6]: 57% | BPRS Anxiety score [6]: 16 | MADRS Suicidal Thoughts score (TRD, IDR 6/12/18 mg inhaled, sum n=8, day 7, baseline 11): 3 | BPRS Emotional Withdrawal score (TRD, IDR 6/12/18 mg inhaled, sum n=8, day 7, baseline 13): 8 | BPRS Blunted Affect score (TRD, IDR 6/12/18 mg inhaled, sum n=8, day 7, baseline 15): 8 | BPRS Tension score (TRD, IDR 6/12/18 mg inhaled, sum n=8, day 7, baseline 16): 10 | MADRS Reduced Sleep percentage improvement [7]: 64% | MADRS Reduced Sleep score [7]: 9 | MADRS Inner Tension percentage improvement [8]: 54% | MADRS Inner Tension score [8]: 12 | MADRS Lassitude score (TRD, IDR 6/12/18 mg inhaled, sum n=8, day 7, baseline 27): 3 | MADRS Pessimistic Thoughts score (TRD, IDR 6/12/18 mg inhaled, sum n=8, day 7, baseline 28): 3 | MADRS Concentration Difficulties percentage improvement [9]: 70.00% | MADRS Concentration Difficulties score [9]: 9 | BPRS Guilt Feelings score (TRD, IDR 6/12/18 mg inhaled, sum n=8, day 7, baseline 34): 10 | MADRS Inability to Feel score (TRD, IDR 6/12/18 mg inhaled, sum n=8, day 7, baseline 36): 6 | BPRS Anxiety percentage improvement [10]: 54% | BPRS Anxiety score [10]: 17 | MADRS Suicidal Thoughts score (TRD, single 12 mg inhaled, sum n=4, 2 h after dose, baseline 8): 3 | MADRS Inner Tension percentage improvement [11]: 85% | MADRS Inner Tension score [11]: 2 | MADRS Concentration Difficulties score [12]: 7 | MADRS Inability to Feel score [12]: 9 | MADRS Lassitude score [12]: 10 | MADRS Pessimistic Thoughts percentage improvement [12]: 50.00% | MADRS Pessimistic Thoughts score [12]: 8 | BPRS Blunted Affect score (TRD, single 12 mg inhaled, sum n=4, 3 h after dose, baseline 11): 8 | BPRS Emotional Withdrawal score (TRD, single 12 mg inhaled, sum n=4, 3 h after dose, baseline 13): 11 | BPRS Tension score (TRD, single 12 mg inhaled, sum n=4, 3 h after dose, baseline 14): 9 | BPRS Guilt Feelings percentage improvement [13]: 50.00% | BPRS Guilt Feelings score [13]: 9 | BPRS Anxiety percentage improvement [14]: 56% | BPRS Anxiety score [14]: 11 | MADRS Suicidal Thoughts score (TRD, single 12 mg inhaled, sum n=4, day 1, baseline 8): 5 | BPRS Blunted Affect score (TRD, single 12 mg inhaled, sum n=4, day 1, baseline 11): 6 | MADRS Reduced Sleep percentage improvement [15]: 17% | MADRS Reduced Sleep score [15]: 10 | BPRS Emotional Withdrawal score [16]: 8 | MADRS Inner Tension percentage improvement [16]: 77% | MADRS Inner Tension score [16]: 3 | BPRS Tension score (TRD, single 12 mg inhaled, sum n=4, day 1, baseline 14): 6 | MADRS Concentration Difficulties score [17]: 2 | MADRS Inability to Feel score [17]: 1 | MADRS Lassitude percentage improvement [17]: 100.00% | MADRS Lassitude score [17]: 0 | MADRS Pessimistic Thoughts score [17]: 7 | BPRS Guilt Feelings score (TRD, single 12 mg inhaled, sum n=4, day 1, baseline 18): 5 | BPRS Anxiety percentage improvement [18]: 76% | BPRS Anxiety score [18]: 6 | MADRS Suicidal Thoughts score (TRD, single 12 mg inhaled, sum n=4, day 7, baseline 8): 7 | BPRS Blunted Affect score (TRD, single 12 mg inhaled, sum n=4, day 7, baseline 11): 5 | MADRS Reduced Sleep percentage improvement [19]: 50% | MADRS Reduced Sleep score [19]: 6 | BPRS Emotional Withdrawal score [20]: 6 | MADRS Inner Tension percentage improvement [20]: 62% | MADRS Inner Tension score [20]: 5 | BPRS Tension score (TRD, single 12 mg inhaled, sum n=4, day 7, baseline 14): 6 | MADRS Concentration Difficulties score [21]: 3 | MADRS Inability to Feel score [21]: 1 | MADRS Lassitude score [21]: 3 | MADRS Pessimistic Thoughts percentage improvement [21]: 50.00% | MADRS Pessimistic Thoughts score [21]: 8 | BPRS Guilt Feelings score (TRD, single 12 mg inhaled, sum n=4, day 7, baseline 18): 5 | BPRS Anxiety percentage improvement [22]: 76% | BPRS Anxiety score [22]: 6
